The source of these data is US20120065066A1, “NOVEL HERBICIDES” (SYNGENTA CROP PROTECTION LLC, priority 2009, published 2012).

What all share (type): in vivo
In test [1] the test system is Alopecurus myosuroides (ALOMY). In words: Test Example 1, pre-emergence herbicidal test. As to conditions: 480 h, evaluated 20 days later, 100=total damage to plant, 0=no damage to plant. Here is the method: (§1) Monocotyledonous and dicotyledonous test plants were sown in standard soil in pots. After cultivation for one day (pre-emergence) or after 10 days cultivation (post-emergence) under controlled conditions in a glasshouse, the plants were sprayed with an aqueous spray solution derived from the formulation of the technical active ingredient in 0.6 ml acetone and 45 ml formulation solution containing 10.6% Emulsogen EL (Registry number 61791-12-6), 42.2% N-methylpyrrolidone, 42.2% dipropylene glycol monomethyl ether (Registry number 34590-94-8) and 0.2% X-77 (Registry number 11097-66-8). The test plants were then grown in a greenhouse under optimum conditions until, 15 days later for post-emergence and 20 days for pre-emergence, the test was evaluated (100=total damage to plant; 0=no damage to plant). Test Plants: Lolium perenne (LOLPE), Setaria faberi (SETFA), Digitaria sanguinalis (DIGSA), Alopecurus myosuroides (ALOMY), Echinochloa crus-galli (ECHCG) and Avena fatua (AVEFA), Pre-Emergence Data: […]

In test [2] the test system is Avena fatua (AVEFA). In words: Test Example 1, pre-emergence herbicidal test. As to conditions: 480 h, evaluated 20 days later, 100=total damage to plant, 0=no damage to plant. The protocol: as §1
Test [3] concerns Digitaria sanguinalis (DIGSA). Kind of test: Test Example 1, pre-emergence herbicidal test. As to conditions: 480 h, evaluated 20 days later, 100=total damage to plant, 0=no damage to plant. The protocol: as §1
For test [4], the system named is Echinochloa crus-galli (ECHCG). In words: Test Example 1, pre-emergence herbicidal test. As to conditions: 480 h, evaluated 20 days later, 100=total damage to plant, 0=no damage to plant. The protocol:
as §1

Test [5] has as its system Lolium perenne (LOLPE). Kind of test: Test Example 1, pre-emergence herbicidal test. As to conditions: 480 h, evaluated 20 days later, 100=total damage to plant, 0=no damage to plant. Here is the method:
as §1

The test system of test [6] is Setaria faberi (SETFA). Kind of test: Test Example 1, pre-emergence herbicidal test. Particulars: 480 h, evaluated 20 days later, 100=total damage to plant, 0=no damage to plant, read-out: SEFTA damage to plant. The protocol:
as §1

Test [7] deals with Alopecurus myosuroides (ALOMY). Kind of test: Test Example 1, post-emergence herbicidal test. Particulars: 360 h, evaluated 15 days later, 100=total damage to plant, 0=no damage to plant. The protocol:
as §1, with “Post-Emergence” for “Pre-Emergence”

For test [8], the system named is Avena fatua (AVEFA). In words: Test Example 1, post-emergence herbicidal test. As to conditions: 360 h, evaluated 15 days later, 100=total damage to plant, 0=no damage to plant. The protocol:
as §1, with “Post-Emergence” for “Pre-Emergence”

In test [9] the test system is Digitaria sanguinalis (DIGSA). In words: Test Example 1, post-emergence herbicidal test. As to conditions: 360 h, evaluated 15 days later, 100=total damage to plant, 0=no damage to plant. Here is the method: as §1, with “Post-Emergence” for “Pre-Emergence”
The subject of test [10] is Echinochloa crus-galli (ECHCG). Kind of test: Test Example 1, post-emergence herbicidal test. Particulars: 360 h, evaluated 15 days later, 100=total damage to plant, 0=no damage to plant. The protocol: as §1, with “Post-Emergence” for “Pre-Emergence”
Test [11] relates to Lolium perenne (LOLPE). In words: Test Example 1, post-emergence herbicidal test. Particulars: 360 h, evaluated 15 days later, 100=total damage to plant, 0=no damage to plant. The protocol:
as §1, with “Post-Emergence” for “Pre-Emergence”

The test system of test [12] is Setaria faberi (SETFA). In words: Test Example 1, post-emergence herbicidal test. Particulars: 360 h, evaluated 15 days later, 100=total damage to plant, 0=no damage to plant, read-out: SEFTA damage to plant. Here is the method:
as §1, with “Post-Emergence” for “Pre-Emergence”

The test system of test [13] is Alopecurus myosuroides (ALOMY). In words: Test Example B, pre-emergence herbicidal test. Particulars: 312 h, evaluated after 13 days, 100=total damage to plant, 0=no damage to plant. The protocol: (§2) Seeds of a variety of test species were sown in standard soil in pots. After cultivation for one day (pre-emergence) or after 8 days cultivation (post-emergence) under controlled conditions in a glasshouse (at 24/16° C., day/night; 14 hours light; 65% humidity), the plants were sprayed with an aqueous spray solution derived from the formulation of the technical active ingredient in acetone/water (50:50) solution containing 0.5% Tween 20 (polyoxyethelyene sorbitan monolaurate, CAS RN 9005-64-5). The test plants were then grown in a glasshouse under controlled conditions in a glasshouse (at 24/16° C., day/night; 14 hours light; 65% humidity) and watered twice daily. After 13 days for pre and post-emergence, the test was evaluated (100=total damage to plant; 0=no damage to plant). Test Plants: Setaria faberi (SETFA), Alopecurus myosuroides (ALOMY), Echinochloa crus-galli (ECHCG), and Avena fatua (AVEFA).

Test [14] relates to Avena fatua (AVEFA). Kind of test: Test Example B, pre-emergence herbicidal test. As to conditions: 312 h, evaluated after 13 days, 100=total damage to plant, 0=no damage to plant. The protocol: as §2
The subject of test [15] is Echinochloa crus-galli (ECHCG). In words: Test Example B, pre-emergence herbicidal test. Particulars: 312 h, evaluated after 13 days, 100=total damage to plant, 0=no damage to plant. Here is the method:
as §2

The subject of test [16] is Alopecurus myosuroides (ALOMY). In words: Test Example B, post-emergence herbicidal test. Particulars: 312 h, evaluated after 13 days, 100=total damage to plant, 0=no damage to plant. Here is the method:
as §2

The subject of test [17] is Avena fatua (AVEFA). Kind of test: Test Example B, post-emergence herbicidal test. As to conditions: 312 h, evaluated after 13 days, 100=total damage to plant, 0=no damage to plant. Here is the method: as §2
Test [18] concerns Echinochloa crus-galli (ECHCG). In words: Test Example B, post-emergence herbicidal test. As to conditions: 312 h, evaluated after 13 days, 100=total damage to plant, 0=no damage to plant. The protocol: as §2

Take `Cc1cc(C)c(C2=C(O)[C@@H]3[C@H](C2=O)[C@@H]2C=C[C@H]3CC2)c(C)c1` [Compound T53]: the pest or weed control at 250 g/ha came to 70% in [1]; 40% with Avena fatua (AVEFA) [2]; 80% in test [3]; 70% in [4]; 100% with Lolium perenne (LOLPE) [5]; 100% with Setaria faberi (SETFA) [6]. Moreover, the pest or weed control at 125 g/ha in test [7] was found to be 20%; in the test on Avena fatua (AVEFA) [8], 0%; in test [9], 50%; in test [10], 60%; in the test on Lolium perenne (LOLPE) [11] it was 30%; in the test with Setaria faberi (SETFA) [12], 20%.
Regarding `CCc1cc(C)cc(CC)c1C1=C(O)[C@H]2[C@H]3C=C[C@](OC)(CC3)[C@H]2C1=O` [Compound T55], the pest or weed control at 250 g/ha in test [1] came out at 100%; with Avena fatua (AVEFA) [2], 70%; in test [3], 100%; in test [4], 100%; with Lolium perenne (LOLPE) [5], 100%; in the test on Setaria faberi (SETFA) [6] it was 100%. Besides, the pest or weed control at 125 g/ha stood at 80% in test [7]; 80% in the test with Avena fatua (AVEFA) [8]; 80% in test [9]; 100% in [10]; 70% in the test on Lolium perenne (LOLPE) [11]; 90% with Setaria faberi (SETFA) [12].
As to `CCc1cc(C)cc(CC)c1C1=C(O)[C@H]2[C@@H]3CC[C@@H](C(=O)C3)[C@H]2C1=O` [Compound T54], the pest or weed control at 250 g/ha in [1] came to 70%; with Avena fatua (AVEFA) [2], 70%; in test [3], 80%; in test [4], 70%; with Lolium perenne (LOLPE) [5], 90%; in the test with Setaria faberi (SETFA) [6] it was 80%. The pest or weed control at 125 g/ha amounted to 60% in test [7]; 60% in the test with Avena fatua (AVEFA) [8]; 80% in test [9]; 80% in test [10]; 50% in the test on Lolium perenne (LOLPE) [11]; 80% with Setaria faberi (SETFA) [12].
As for `CCc1cc(C)cc(CC)c1C1=C(O)[C@H]2[C@H]3CC[C@H](CC3)[C@H]2C1=O` (racemic) [Compound T48, rac-(7R,8S)-2-(2,6-diethyl-4-methylphenyl)hexahydro-4,7-ethanoindene-1,3-dione], the pest or weed control at 250 g/ha in [1] came to 100%; in the test on Avena fatua (AVEFA) [2], 70%; in [3], 100%; in [4] it was 100%; in the test with Lolium perenne (LOLPE) [5], 100%; with Setaria faberi (SETFA) [6], 100%. The pest or weed control at 125 g/ha was 80% in [7]; 70% with Avena fatua (AVEFA) [8]; 100% in [9]; 90% in [10]; 100% in the test with Lolium perenne (LOLPE) [11]; 80% in the test on Setaria faberi (SETFA) [12].
On to `CCc1cc(C)cc(CC)c1C1=C(O)[C@@H]2[C@H](C1=O)[C@@H]1CC[C@H]2C1=C(C)C` [Compound T51], for which the pest or weed control at 250 g/ha in [1] stood at 60%; in the test on Avena fatua (AVEFA) [2] it was 60%; in test [3], 80%; in [4], 90%; in the test with Lolium perenne (LOLPE) [5], 100%; in the test with Setaria faberi (SETFA) [6], 80%. Besides, the pest or weed control at 125 g/ha was found to be 30% in [7]; 0% in the test with Avena fatua (AVEFA) [8]; 30% in test [9]; 10% in [10]; 50% in the test on Lolium perenne (LOLPE) [11]; 0% in the test with Setaria faberi (SETFA) [12].
As for `Cc1cc(C)c(C2=C(O)[C@H]3[C@H]4CC[C@H](CC4)[C@H]3C2=O)c(C)c1` [Compound T47], the pest or weed control at 250 g/ha is 90% in test [1]; 50% in the test with Avena fatua (AVEFA) [2]; 100% in test [3]; 70% in test [4]; 80% in the test with Lolium perenne (LOLPE) [5]; 100% in the test on Setaria faberi (SETFA) [6]. The pest or weed control at 125 g/ha amounted to 0% in [7]; 40% in the test with Avena fatua (AVEFA) [8]; 80% in test [9]; 60% in [10]; 40% with Lolium perenne (LOLPE) [11]; 60% with Setaria faberi (SETFA) [12].
For the molecule `Cc1ccc(-c2ccc(Cl)cc2)cc1C1=C(O)[C@H]2[C@H]3CC[C@H](C3)[C@H]2C1=O` [Compound T2], the pest or weed control at 250 g/ha in test [13] is 30%; in the test with Avena fatua (AVEFA) [14], 80%; in [15] it was 100%; in test [16] it was 40%; with Avena fatua (AVEFA) [17] it was 60%; in test [18], 100%.
Take `CCc1ccc(-c2c(F)cc(Cl)cc2Cl)cc1C1=C(O)[C@H]2[C@H]3CC[C@H](CC3)[C@H]2C1=O` [Compound T42]: the pest or weed control at 250 g/ha worked out at 0% in test [13]; 0% in the test on Avena fatua (AVEFA) [14]; 0% in test [15]; 0% in [16]; 40% in the test on Avena fatua (AVEFA) [17]; 80% in [18].
For `CCc1ccc(-c2ccc(Cl)s2)cc1C1=C(O)[C@H]2[C@H]3CC[C@H](C3)[C@H]2C1=O` [Compound T34], the pest or weed control at 250 g/ha in [13] is 30%; in the test with Avena fatua (AVEFA) [14], 40%; in [15], 100%; in [16] it was 60%; in the test with Avena fatua (AVEFA) [17], 80%; in test [18] it was 90%.
Turning to `CCc1ccc(-c2c(F)cc(Cl)cc2F)cc1C1=C(O)[C@H]2[C@H]3CC[C@H](CC3)[C@H]2C1=O` [Compound T20], the pest or weed control at 250 g/ha (in [13]; with Avena fatua (AVEFA) [14]; in test [15]; in test [16]; in the test on Avena fatua (AVEFA) [17]; in test [18]) was 100% throughout.
